The values that follow come from patent US11795135B2, “Prostacyclin compounds, compositions and methods of use thereof” (Insmed Incorporated, priority 2013, dated 2023).

“Also recorded” adds a separate entry of the source. Read-outs that look alike come from different tables or passages of the source.

One data set has as its system esterase. In words: Esterase mediated conversion of treprostinil compounds to treprostinil. Conditions: incubation with esterase at 37° C., 1 hour (FIG. 28, 30). It is filed as in vitro ADME. The protocol: A set of studies was conducted to determine the conversion kinetics to treprostinil of linear treprostinil compounds versus various branched treprostinil compounds. 0.4 mM of linear C8-TR or branched treprostinil compounds 2-dimethyl-1-propanyl-TR, 3,3-dimethyl-1-butanyl-TR, 2-ethyl-1-butanyl-TR, 5-nonanyl-TR, or 3-pentanyl-TR (see below for structures) were incubated with 0.2 U esterase at 37° C. for 1 hour, and the conversion (% of total) was calculated at 0.25, 0.5, 0.75, or 1 hour incubation time. • C8-TR (i.e., the compound of Formula (A) wherein
The conversion is relative to the C8-TR compound and conversion was measured at 1 hr. post esterase incubation. • C8-TR (i.e., the compound of Formula (A) wherein
Conversion was measured at 1 hr. post esterase incubation. • 4C7-TR (i.e., the compound of Formula (A) wherein

A further data set relates to CHO-K1 cells. The data set can be described thus: CHO-K1 cell proliferation assay (Presto Blue). As to the method: CHO-K1 cells were harvested when the cell monolayer was 50-90% confluent (use passage 4-11). Media was aspirated out of the flask, and cells were rinsed with 2 mL of F12 media. Next, 1 mL of pre-warmed (37° C.) 0.25% trypsin-EDTA (Life Technologies, Cat #: 25300054) was added, and cells were dislodged from the flask by tapping it on the side. Complete growth media (F12 (Life Technologies, Cat #: 31765092)+10% FBS (Hyclone, Cat #: SH30071.03)+1× Pen-Strep (Life Technologies, cat #15140-122) was then added at a volume of 10 mL. Cells were centrifuged at 250×g for 5 minutes at room temperature, and the media was aspirated. The cell pellet was resuspended in 10 mL complete growth media. Cell number was determined using a hemacytometer. Cells were then seeded at 2000 cells per well of a 96-well plate in 100 μL of complete growth media. The plate was incubated overnight at 37° C. and 5% CO2 in a water-jacketed incubator.
The next day, 80 μL of fresh complete media was added to each well, and CHO-K1 cells were challenged with treprostinil compound and composition treatments. The working solutions were prepared at 10× concentration, and following 2 fold serial dilutions, 20 μL aliquots were added per well to arrive at a final 1× concentration. Following a 48 hour incubation at 37° C. and 5% CO2 in a water-jacketed incubator, the inhibitory effect on cell proliferation was determined. Plates were analyzed using 20 μL of Presto Blue reagent (Life Technologies, cat #: A13262) per well. The reagent was mixed, and plates were incubated for 1 hour at 37° C. and 5% CO2 in a water-jacketed incubator. Plates were read using either a CytoFluor Series 4000 (PerSeptive BioSystems) or Synergy Neo microplate reader (BioTek) with emission λ: 590 nm and excitation λ: 560 nm.
at concentrations ranging from 0.55 μM to 125 μM. Following a 48 hour incubation period, the inhibitory effect of the treprostinil derivative compositions on cell proliferation was determined.
C2, C3, C4, C5, C6, C8, C10 or Cu straight chain alkyl, at dosages ranging from 0.098 μM to 25 μM. Following a 48 hour incubation period, the inhibitory effect on cell proliferation was determined.
Following a 72 hour incubation period, the inhibitory effect on cell proliferation was determined. Following a 48 hour incubation period, the inhibitory effect on cell proliferation was determined.
Similarly, CHO-K1 cells were challenged with the treprostinil compositions T612 (R2=C2), T613 (R2=C8) at concentrations ranging from 1.41 μM to 180 μM.

Data set [1] has as its system Rat alveolar NR8383 cells. In words: NR8383 cell proliferation assay (Presto Blue). It is filed as cell-based. As to the method:
Rat alveolar NR8383 cells were harvested when the monolayer was 50-90% confluent (use passage 5-11). Because the NR8383 cells include both adherent and non-adherent cells, media was transferred to a 50 mL Falcon tube. To obtain the cells remaining in the flask, 2 mL of plain media was added, and the remaining cells were scraped out of the 75 cm^2 flask with a cell scraper and added to the 50 mL tube. […] SH30071.03)+1×Pen-Strep (Life Technologies, cat #: 15410-122)). Cell number was determined using a hemacytometer. […] Measurements and calculations were made as described above for the CHO-K1 cells.

Another data set has as its target T1, EP2 prostanoid receptor (Homo sapiens, UniProt P43116).
T1 construct: host or cells: CHO-K1
In words: GloSensor cAMP assay in CHO-K1 cells co-transfected with the EP2 receptor. Format: cell-based. The following applies: for ranking of activity of the treprostinil compounds: kinetic profile, 10 μM and 5 μM, FIG. 21. An excerpt:
cAMP is a second messenger involved in signal transduction of G-protein coupled receptors (GPCRs) acting through Gα-s and Gα-i proteins. Because the treprostinil receptor is a GPCR, the assay provides an indication of whether the respective prostacyclin compound (or metabolite thereof) binds its receptor and activates the GPCR cell signaling cascade. The GloSensorTM assay harnesses a genetically modified form of firefly luciferase into which a cAMP-binding protein moiety has been inserted. Upon binding of cAMP, a conformational change is induced leading to increased light output. The EP2 prostanoid receptor was co-transfected with the GloSensorTM plasmid (Promega) into CHO-K1 cells as follows. CHO-K1 cells were harvested when the monoloayer was at 50-90% confluence. First, cells were washed with 5 mL PBS. […] The media was aspirated, and the cell pellet was resuspended in 10 mL of growth media. Cell number was determined using a hemacytometer. Each well of a culture treated 96 well flat bottom plate (Costar, Cat #: 3917) was seeded with 1×10^4 cells per 100 μL antibiotic-free growth media. […] For small scale transfections of up to 20 wells, the pGLoSensor-22F cAMP plasmid (Promega, Cat #: E2301) (2 μg): (EP2) (10 ng) (Origene, Cat #: SC126558):pGEM-3Zf(+) (10 ng) (Promega, Cat #: P2271) ratio was diluted to a final concentration of 12.6 ng/μL (total plasmid) in Opti-MEM I reduced-serum medium (Life Technologies, Cat #: 1985062). Next, 6 μL of FuGENE HD transfection reagent (Promega, Cat #: E2311) was added to 160 μL of diluted plasmid and mixed carefully by gentle pipetting. The complex was incubated at room temperature for 0 to 10 minutes, and then 8 μL of the complex was added per well of a 96 well white assay plate (Costar, Cat #: 3917) and gently mixed without disturbing the cell monolayer. […] Following incubation, cells were treated and analyzed. For larger scale transfections, the aforementioned steps were scaled up accordingly, and cells were frozen following the last incubation. In order to prepare frozen transfected CHO-K1 cells, the media was aspirated from culture flasks and cells were rinsed with 5 mL PBS. […] Cell number was determined using a hemacytometer. The media was aspirated, and the cell pellet was resuspended in freezing media (Millipore, cat #: S-002-5F) at 2.5×10^6 cells/vial. Transfected cells were incubated overnight at -80° C. before transfer to liquid nitrogen for long term storage. […] In preparation for cAMP measurement, the cells were equilibrated with the GloSensor cAMP reagent prior to treatment. For equilibration, the medium was carefully removed from the individual well. Next, 100 μL of equilibration medium ([…] of Glosensor Reagent stock solution (Promega, Cat #: E291), 10% FBS (Hyclone, Cat #: SH30071.03) and 88% CO2 independent medium (Life Technologies, Cat #: 18045088)) was added per well of the 96-well plate, and added to the side of each well. The plate was then incubated for 2 hours at room temperature. A first pre-read measurement was taken using a microplate reader (MicroLumat Plus). Plates were incubated for an additional 10 minutes at room temperature, followed by a second pre-read measurement. […] Following treatment, each plate was read every 5 minutes for the duration of the assay using a microplate reader (MicroLumat Plus). In order to determine the fold change in cAMP relative to the control, the transfection efficiency was first determined by dividing the second pre-read measurement by the average of the corresponding pre-read measurements. Next, the normalized relative light units (RLUs) of the samples were determined by dividing the plate read measurement by the transfection efficiency. The fold change in cAMP relative to the control was then determined by dividing the normalized RLU of the samples by the normalized RLU of the control. The cAMP assay was validated using free treprostinil. […] Luminescence was then measured at room temperature. […]
On the technique in general: Changes in cAMP serve as a functional read-out for many G protein-coupled receptors.

Data set [2] in a line: Particle size characterization of treprostinil compositions (QELS). Format: physicochemical. Conditions: particles of compositions comprising the alkyl ester, FIG. 2.
Protocol: All particle size measurements were performed using a Wyatt Technology Mobius™ Zeta Potential/Particle Sizing Instrument in Quasi-elastic light scattering (QELS) mode. Composition aliquots were diluted 10-fold in pre-filtered (0.02 μm pore filter) ultrapure of deionized H2O. Light scattering data was collected and converted into particle size and size distribution using Dynamics® v. […] Reported average particle size diameter is based on the cumulants model, which mathematically fits particle diffusion constants (determined by the raw scattering intensities of particles in a suspension) to obtain the particle size mean and a distribution of particle sizes around the mean diameter.
Particle uniformity was determined using the software-calculated polydispersity (% PD). Polydispersity is defined as the standard deviation of the particle size distribution from the mean particle size value. % PD normalizes the polydispersity to the mean diameter by dividing by the mean size and multiplying by 100. These parameters indicate whether a particle suspension has one or more size populations of particles (monomodal versus multimodal). […]
Dynamics® polydispersity parameter represents a monodisperse population of particles if % PD≤15. A calculated % PD≥57% represents a polydisperse population of particles.
Data set [3] can be described thus: Treprostinil alkyl ester conversion to treprostinil in rat lung tissue homogenate. The following applies: 37° C., 200 nM, 4 hours, 10 mg/mL of protein. Format: in vitro ADME. As to the method:
Treprostinil alkyl ester conversion to treprostinil was also measured in the presence of rat, dog and monkey lung tissue homogenate at 37° C. Here, data were calculated based on fit of exponential increase to the maximum (experiments performed in duplicate). The results of this study are provided below in Table 2A and FIG. 37. […] Both FIG. 37 experiments (left and right graphs) were performed in duplicate and the lines represent nonlinear exponential regression assuming 1 phase decay.

The mark [4] stands for this setting: unformulated alkyl esters, 48 hour incubation.
[5] abbreviates: unformulated alkyl esters, 72 hour incubation.

T1 sequence (P43116 whole entry): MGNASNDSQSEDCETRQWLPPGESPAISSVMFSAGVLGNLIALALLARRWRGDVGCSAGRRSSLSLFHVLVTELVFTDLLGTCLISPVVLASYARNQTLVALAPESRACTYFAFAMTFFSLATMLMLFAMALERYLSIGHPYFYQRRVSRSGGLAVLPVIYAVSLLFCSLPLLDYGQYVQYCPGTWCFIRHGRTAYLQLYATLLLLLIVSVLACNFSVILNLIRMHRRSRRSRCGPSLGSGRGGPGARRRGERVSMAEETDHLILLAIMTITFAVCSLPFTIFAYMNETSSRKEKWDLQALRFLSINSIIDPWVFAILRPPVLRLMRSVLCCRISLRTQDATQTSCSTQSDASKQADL

Regarding `CCCCCC[C@H](C)OC(=O)COc1cccc2c1C[C@H]1C[C@@H](O)[C@H](CC[C@@H](O)CCCCC)[C@H]1C2` [(S)-2C8-TR], the “esterase mediated conversion rate to treprostinil (comparison)” value (“esterase mediated conversion rate” for short) in the data set with esterase is “no significant difference between the conversion rates of R and S isomers”.
On to `CCCCC[C@H](O)CC[C@@H]1[C@H]2Cc3cccc(OCC(=O)OCCCC)c3C[C@H]2C[C@H]1O` [Compound C4-TR], for which the “Effect on cell proliferation, CHO-K1 Cells (0.195 μM-25 μM)” value (“Effect … CHO-K1 Cells (0.195 μM-25 μM)” below) in the data set with CHO-K1 cells (setting [4]) is recorded as “No detectable cell inhibition”. In addition, in data set [1] (setting [5]), the “Effect on cell proliferation, NR8383 Cells (0.195 μM-25 μM)” value (“Effect … NR8383 Cells (0.195 μM-25 μM)” below) was “No detectable cell inhibition”.
Regarding `CCCCCC(O)CCC1C(O)CC2Cc3c(cccc3OCC(=O)OC(CCC)CCCC)CC21` (mixture of isomers) [Compound 4C8-TR], the “esterase mediated conversion rate” value in the data set with esterase is “slower conversion rate than the linear compound C8-TR; also recorded: slower conversion rate than the symmetrical compounds (4C7-TR and 5C9-TR)”.
`CCCCC[C@H](O)CC[C@@H]1[C@H]2Cc3cccc(OCC(=O)OCC)c3C[C@H]2C[C@H]1O` [Compound C2-TR, treprostinil ethyl ester]: the “Effect … CHO-K1 Cells (0.195 μM-25 μM)” value in the data set on CHO-K1 cells (setting [4]) is on record as “No detectable cell inhibition”. Moreover, the “Effect … NR8383 Cells (0.195 μM-25 μM)” value in data set [1] (setting [5]) is “No detectable cell inhibition”.
“treprostinil decyl ester [Compound C10-TR]”: in the data set with CHO-K1 cells, the “Effect … CHO-K1 Cells (0.195 μM-25 μM)” value is recorded as “No detectable cell inhibition”. In addition, the “duration of cAMP levels compared with free treprostinil and the C6, C8, and C12 derivatives” value on EP2 prostanoid receptor (5 μM, FIG. 4 and FIG. 5) was “sustained significantly longer”. On EP2 prostanoid receptor (10 μM, composition, FIG. 3A), the “cAMP levels compared with free treprostinil” value was “equivalent to free treprostinil” and the “cAMP levels sustained for” value is recorded as “at least 6 hours”. At EP2 prostanoid receptor (compositions, 5 μM, FIG. 4), the “cAMP response compared with the response induced by free treprostinil” value is on record as “greater than or equivalent to the response induced by free treprostinil”. Besides, the cAMP response level entry on EP2 prostanoid receptor (unformulated compounds, 5 μM, FIG. 5) was “equivalent to free treprostinil”. The “Effect … NR8383 Cells (0.195 μM-25 μM)” value in data set [1] is “No detectable cell inhibition”. Also, the “polydispersity (% PD)” value in data set [2] was “around 15%”.
For the compound `CCCCC[C@H](O)CC[C@@H]1[C@H]2Cc3cccc(OCC(=O)OC(CCC)CCC)c3C[C@H]2C[C@H]1O` [Compound 4C7-TR], the “esterase mediated conversion rate” value in the data set with esterase is given as “slower conversion rate than the linear compound C8-TR”.
Take `CCCCCCOC(=O)COc1cccc2c1C[C@H]1C[C@@H](O)[C@H](CC[C@@H](O)CCCCC)[C@H]1C2` [Compound C6-TR]: the “Effect … CHO-K1 Cells (0.195 μM-25 μM)” value with CHO-K1 cells (setting [4]) is “No detectable cell inhibition”. Also, the “Effect … NR8383 Cells (0.195 μM-25 μM)” value in data set [1] (setting [5]) is reported as “No detectable cell inhibition”.
With `CCCCC[C@H](O)CC[C@@H]1[C@H]2Cc3cccc(OCC(=O)OCCC)c3C[C@H]2C[C@H]1O` [Compound C3-TR], the “Effect … CHO-K1 Cells (0.195 μM-25 μM)” value in the data set on CHO-K1 cells (setting [4]) was “No detectable cell inhibition”. In addition, the “Effect … NR8383 Cells (0.195 μM-25 μM)” value in data set [1] (setting [5]) is recorded as “No detectable cell inhibition”.
As for `CCCCCC[C@@H](C)OC(=O)COc1cccc2c1C[C@H]1C[C@@H](O)[C@H](CC[C@@H](O)CCCCC)[C@H]1C2` [(R)-2C8-TR], the “esterase mediated conversion rate” value with esterase was “no significant difference between the conversion rates of R and S isomers”.
In the case of `CCCCCCCCCCCCCCOC(=O)COc1cccc2c1C[C@H]1C[C@@H](O)[C@H](CC[C@@H](O)CCCCC)[C@H]1C2` [Compound C14-TR, tetradecyl-treprostinil], the “ranking of activity of the treprostinil compounds” value on EP2 prostanoid receptor is on record as “C12-TR>C14-TR>5-nonanyl-TR>C16-TR”. Besides, the “Rate of treprostinil alkyl ester conversion” value in data set [3] was 0.4 nmOL/h * g of protein. Moreover, in data set [2], the “polydispersity (% PD)” value is reported as “around 15%”.
In the case of `CCCCC[C@H](O)CC[C@@H]1[C@H]2Cc3cccc(OCC(=O)OC(CCCC)CCCC)c3C[C@H]2C[C@H]1O` [Compound 5C9-TR, 5-nonanyl-treprostinil], on EP2 prostanoid receptor, the “ranking of activity of the treprostinil compounds” value is listed as “C12-TR>C14-TR>5-nonanyl-TR>C16-TR”. Besides, the entries for the “esterase mediated conversion rate” value in the data set with esterase and in the data set on esterase (listed as 5-nonanyl-TR) were “slower conversion rate than the linear compound C8-TR” and “slower conversion rate than linear C8-TR”, respectively.
